Experimental data as given in US9365588B2, “Benzoxazines as modulators of ion channels” (Vertex Pharmaceuticals Incorporated, priority 2011, dated 2016).
One block for each molecule: values may come before it.

Biological target: human NaV 1.7 (Homo sapiens, UniProt Q15858)
Test: E-VIPR optical membrane potential assay with electrical stimulation
Assay type: cell-based
Settings: sodium channel inhibition; read-out: Binned Activity Data (IC50)
Method in brief: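 Membrane-potential read-out: background-subtracted 460 nm/580 nm ratio during a 9 s current-controlled stimulus, 400 Hz scan. Before stimulation, NaV1.7-HEK cells carried coumarin/oxonol dye and compound (final DMSO 0.625%) for 20–35 min at room temperature; tetracaine 125 μM served as positive control.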

Sequence of human NaV 1.7 (Q15858 whole entry): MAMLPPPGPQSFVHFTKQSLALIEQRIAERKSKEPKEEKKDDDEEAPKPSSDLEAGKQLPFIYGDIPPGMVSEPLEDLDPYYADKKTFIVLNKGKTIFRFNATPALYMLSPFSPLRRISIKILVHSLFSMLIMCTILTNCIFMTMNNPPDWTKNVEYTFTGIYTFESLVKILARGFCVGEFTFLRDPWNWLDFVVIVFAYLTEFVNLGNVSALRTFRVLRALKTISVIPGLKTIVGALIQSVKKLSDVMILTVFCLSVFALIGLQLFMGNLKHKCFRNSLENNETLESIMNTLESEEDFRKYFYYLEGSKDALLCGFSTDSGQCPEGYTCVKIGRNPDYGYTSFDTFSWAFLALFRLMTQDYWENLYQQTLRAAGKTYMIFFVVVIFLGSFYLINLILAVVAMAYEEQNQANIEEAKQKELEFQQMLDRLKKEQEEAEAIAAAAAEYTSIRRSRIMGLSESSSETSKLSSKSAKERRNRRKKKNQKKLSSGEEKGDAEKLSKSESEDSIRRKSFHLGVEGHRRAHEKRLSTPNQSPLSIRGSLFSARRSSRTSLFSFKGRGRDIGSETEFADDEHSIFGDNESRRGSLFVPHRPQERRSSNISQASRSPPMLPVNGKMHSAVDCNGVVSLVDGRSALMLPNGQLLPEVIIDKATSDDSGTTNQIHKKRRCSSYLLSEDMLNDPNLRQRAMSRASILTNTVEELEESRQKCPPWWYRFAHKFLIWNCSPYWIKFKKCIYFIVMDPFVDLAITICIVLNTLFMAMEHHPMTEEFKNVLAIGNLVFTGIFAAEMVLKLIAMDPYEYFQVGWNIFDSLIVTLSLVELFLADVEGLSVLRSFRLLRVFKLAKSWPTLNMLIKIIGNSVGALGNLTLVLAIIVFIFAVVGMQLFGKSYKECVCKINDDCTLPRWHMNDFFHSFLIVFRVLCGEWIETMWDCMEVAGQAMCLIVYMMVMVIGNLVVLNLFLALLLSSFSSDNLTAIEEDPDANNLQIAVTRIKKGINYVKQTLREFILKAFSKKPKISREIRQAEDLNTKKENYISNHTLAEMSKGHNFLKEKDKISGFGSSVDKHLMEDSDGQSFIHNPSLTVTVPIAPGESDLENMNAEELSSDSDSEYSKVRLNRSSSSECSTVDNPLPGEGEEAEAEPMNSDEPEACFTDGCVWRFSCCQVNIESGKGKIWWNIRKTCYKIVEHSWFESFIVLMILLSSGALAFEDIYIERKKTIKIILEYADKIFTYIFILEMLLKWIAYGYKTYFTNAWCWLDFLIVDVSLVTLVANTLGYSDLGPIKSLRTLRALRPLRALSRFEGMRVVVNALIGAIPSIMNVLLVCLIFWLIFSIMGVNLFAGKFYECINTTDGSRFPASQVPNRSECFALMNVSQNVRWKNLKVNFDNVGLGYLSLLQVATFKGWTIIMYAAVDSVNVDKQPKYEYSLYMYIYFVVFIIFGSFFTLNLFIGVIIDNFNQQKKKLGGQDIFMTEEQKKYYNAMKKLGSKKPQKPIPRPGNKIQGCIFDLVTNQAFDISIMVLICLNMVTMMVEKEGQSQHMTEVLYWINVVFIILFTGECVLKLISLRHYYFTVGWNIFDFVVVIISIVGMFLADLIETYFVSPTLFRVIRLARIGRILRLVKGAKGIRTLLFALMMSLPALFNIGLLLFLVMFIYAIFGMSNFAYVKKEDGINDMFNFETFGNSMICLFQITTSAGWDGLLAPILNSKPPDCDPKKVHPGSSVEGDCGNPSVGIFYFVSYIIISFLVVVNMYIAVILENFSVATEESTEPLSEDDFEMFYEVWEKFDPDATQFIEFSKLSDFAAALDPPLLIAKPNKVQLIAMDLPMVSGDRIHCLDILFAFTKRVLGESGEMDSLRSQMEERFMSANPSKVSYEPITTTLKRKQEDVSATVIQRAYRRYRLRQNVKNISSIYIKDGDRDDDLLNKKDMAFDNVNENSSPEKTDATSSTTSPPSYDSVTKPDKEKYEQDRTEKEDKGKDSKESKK

IC50: ≤ 2000 nM
Structure (SMILES): COc1cc(C(=O)N2CCC3(CC2)Oc2cc(F)ccc2-n2cccc23)ccc1O[C@@H]1CCC[C@H]1O [Compound 34]

IC50: ≤ 2000 nM
Structure (SMILES): COc1cc(C(=O)N2CCC3(CC2)Oc2ccccc2-n2cccc23)ccc1OC(C)C [Compound 247]

IC50: ≤ 2000 nM
Structure (SMILES): Cc1nc2ccc(C(=O)N3CCC4(CC3)Oc3ccccc3-n3c(C(F)(F)F)ccc34)cc2s1 [Compound 503]

IC50: ≤ 2000 nM
Structure (SMILES): Cc1cc(OC(C)C)ccc1C(=O)N1CCC2(CC1)Oc1ccccc1-c1c2cnn1C [Compound 158]

IC50: ≤ 2000 nM
Structure (SMILES): COc1cc(C(=O)N2CCC3(CC2)Oc2ccccc2-n2c3ccc2S(C)(=O)=O)ccc1OC(C)C [Compound 768]

IC50: 2000 to 5000 nM
Structure (SMILES): Cn1ncc2c1-c1ccccc1OC21CCN(C(=O)c2ccnc3ccccc23)CC1 [Compound 322]

IC50: ≤ 2000 nM
Structure (SMILES): COCCOc1ccc(C(=O)N2CCC3(CC2)Oc2ccccc2-c2c3cnn2C)cc1Cl [Compound 587]

IC50: ≤ 2000 nM
Structure (SMILES): COc1cc(S(=O)(=O)C(C)C)ccc1C(=O)N1CCC2(CC1)Oc1ccccc1-c1c2cnn1C [Compound 336]

IC50: ≤ 2000 nM
Structure (SMILES): COc1cc(C(=O)N2CCC3(CC2)Oc2ccccc2-n2ccnc23)ccc1OC(C)C [Compound 316]

IC50: ≤ 2000 nM
Structure (SMILES): Cn1cc2c(n1)-c1ccccc1OC21CCN(C(=O)c2ccc(CC(C)(C)O)cc2)CC1 [Compound 598]

IC50: ≤ 2000 nM
Structure (SMILES): CC(C)Oc1ccccc1C(=O)N1CCC2(CC1)Oc1ccccc1-c1c2cnn1C [Compound 430]

IC50: ≤ 2000 nM
Structure (SMILES): COc1cc(C(=O)N2CCC3(CC2)Oc2ccccc2-c2nn(C)cc23)ccc1OC(C)(C)C [Compound 307]

IC50: 2000 to 5000 nM
Structure (SMILES): CN(C)c1cc(C(=O)N2CCC3(CC2)Oc2ccccc2-c2c3cnn2C)ccn1 [Compound 499]

IC50: > 5000 nM
Structure (SMILES): Cn1ccc(C(=O)N2CCC3(CC2)Oc2ccccc2-n2cccc23)cc1=O [Compound 405]

IC50: ≤ 2000 nM
Structure (SMILES): Cn1ncc2c1-c1ccc(Cl)cc1OC21CCN(C(=O)c2ccccc2OC(F)F)CC1 [Compound 623]

IC50: > 5000 nM
Structure (SMILES): COc1cnccc1C(=O)N1CCC2(CC1)Oc1ccccc1-c1c2cnn1C [Compound 384]

IC50: ≤ 2000 nM
Structure (SMILES): COCCOc1ccc(C(=O)N2CCC3(CC2)Oc2ccccc2-n2c(C)ccc23)cc1OC [Compound 596]

IC50: ≤ 2000 nM
Structure (SMILES): Cn1ncc2c1-c1ccccc1OC21CCN(C(=O)c2ccc(OC3CCCC3)cc2)CC1 [Compound 828]

IC50: > 5000 nM
Structure (SMILES): Cn1ncc2c1-c1ccccc1OC21CCN(C(=O)c2cccc(F)c2F)CC1 [Compound 242]

IC50: > 5000 nM
Structure (SMILES): Cn1ncc2c1-c1ccccc1OC21CCN(C(=O)c2ccc(OC3COC3)c(F)c2)CC1 [Compound 569]

IC50: ≤ 2000 nM
Structure (SMILES): Cc1c(F)cccc1C(=O)N1CCC2(CC1)Oc1ccccc1-c1c2cnn1C [Compound 44]

IC50: ≤ 2000 nM
Structure (SMILES): CC(C)Oc1ccc(C(=O)N2CCC3(CC2)Oc2ccccc2-n2cccc23)cc1C(F)(F)F [Compound 376]

IC50: ≤ 2000 nM
Structure (SMILES): CNS(=O)(=O)c1ccc(C(=O)N2CCC3(CC2)Oc2ccccc2-c2c3cnn2C)cc1 [Compound 494]

IC50: 2000 to 5000 nM
Structure (SMILES): COc1c(C(=O)N2CCC3(CC2)Oc2ccccc2-c2c3cnn2C)ccc(F)c1F [Compound 702]

IC50: 2000 to 5000 nM
Structure (SMILES): Cc1cc(C(=O)N2CCC3(CC2)Oc2ccccc2-n2c(C#N)ccc23)ccc1OCC(=O)O [Compound 462]

IC50: 2000 to 5000 nM
Structure (SMILES): COc1cc(C(=O)N2CCC3(CC2)Oc2ccccc2-c2c3cnn2C)ccc1OC(F)F [Compound 169]

IC50: ≤ 2000 nM
Structure (SMILES): Cn1cc2c(n1)-c1ccccc1OC21CCN(C(=O)c2ccc3ncsc3c2)CC1 [Compound 173]

IC50: ≤ 2000 nM
Structure (SMILES): CCCOc1ccc(C(=O)N2CCC3(CC2)Oc2ccccc2-n2cccc23)cc1C#N [Compound 361]

IC50: ≤ 2000 nM
Structure (SMILES): Cn1cc2c(n1)-c1ccccc1OC21CCN(C(=O)c2cccc3cccnc23)CC1 [Compound 113]

IC50: > 5000 nM
Structure (SMILES): COc1cc(C(=O)N2CCC3(CC2)Oc2ccccc2-c2nn(C)cc23)cc(OC)c1OC [Compound 747]

IC50: ≤ 2000 nM
Structure (SMILES): COc1cc(C(=O)N2CCC3(CC2)Oc2cc(F)ccc2-n2cccc23)ccc1O[C@@H]1CCOC1 [Compound 683]

IC50: ≤ 2000 nM
Structure (SMILES): Cc1cc(C(=O)N2CCC3(CC2)Oc2ccccc2-c2c3cnn2C)ccc1O [Compound 700]

IC50: ≤ 2000 nM
Structure (SMILES): COc1c(F)cccc1C(=O)N1CCC2(CC1)Oc1ccccc1-c1c2cnn1C [Compound 699]

IC50: > 5000 nM
Structure (SMILES): CC(C)NC(=O)c1ccc(C(=O)N2CCC3(CC2)Oc2ccccc2-c2c3cnn2C)cc1 [Compound 150]

IC50: ≤ 2000 nM
Structure (SMILES): COc1ccc(C(=O)N2CCC3(CC2)Oc2ccccc2-c2nn(C)cc23)c(OC)c1OC [Compound 646]

IC50: ≤ 2000 nM
Structure (SMILES): Cn1cc2c(n1)-c1ccccc1OC21CCN(C(=O)c2ccc(OC(F)F)cc2)CC1 [Compound 284]

IC50: ≤ 2000 nM
Structure (SMILES): COc1cc(C(C)(C)O)ccc1C(=O)N1CCC2(CC1)Oc1ccccc1-c1c2cnn1C [Compound 637]

IC50: ≤ 2000 nM
Structure (SMILES): COCCOc1ccc(C(=O)N2CCC3(CC2)Oc2ccccc2-n2cccc23)cc1C#N [Compound 62]

IC50: 2000 to 5000 nM
Structure (SMILES): COc1cccc(OC)c1C(=O)N1CCC2(CC1)Oc1ccccc1-c1c2cnn1C [Compound 748]

IC50: ≤ 2000 nM
Structure (SMILES): Cn1ncc2c1-c1ccccc1OC21CCN(C(=O)c2ccc(CC(C)(C)O)cc2)CC1 [Compound 473]

IC50: 2000 to 5000 nM
Structure (SMILES): CCS(=O)(=O)c1ccc(C(=O)N2CCC3(CC2)Oc2ccccc2-c2c3cnn2C)cc1 [Compound 859]

IC50: ≤ 2000 nM
Structure (SMILES): Cn1ncc2c1-c1ccccc1OC21CCN(C(=O)c2cccc3nccnc23)CC1 [Compound 439]

Second part, the molecule before the results:

Structure (SMILES): CC(C)NS(=O)(=O)c1ccc(C(=O)N2CCC3(CC2)Oc2ccc(F)cc2-c2nn(C)cc23)cc1 [Compound 580]
IC50: ≤ 2000 nM

Structure (SMILES): CC(C)(C)c1ccc(C(=O)N2CCC3(CC2)Oc2ccccc2-n2c(C#N)ccc23)cc1 [Compound 295]
IC50: ≤ 2000 nM

Structure (SMILES): CCc1ccccc1C(=O)N1CCC2(CC1)Oc1cc(Cl)ccc1-n1cccc12 [Compound 833]
IC50: ≤ 2000 nM

Structure (SMILES): Cc1cc(C(=O)N2CCC3(CC2)Oc2ccccc2-n2c(C(F)(F)F)ccc23)ccc1S(=O)(=O)N(C)C [Compound 413]
IC50: ≤ 2000 nM

Structure (SMILES): CCc1ccc(C(=O)N2CCC3(CC2)Oc2cc(F)ccc2-n2cccc23)cc1OC [Compound 200]
IC50: ≤ 2000 nM

Structure (SMILES): N#Cc1ccc2n1-c1ccccc1OC21CCN(C(=O)c2ccc(OC3CNC3)cc2)CC1 [Compound 854]
IC50: 2000 to 5000 nM

Structure (SMILES): CC(C)S(=O)(=O)c1ccc(C(=O)N2CCC3(CC2)Oc2cc(Cl)ccc2-n2c(C#N)ccc23)cc1 [Compound 679]
IC50: 2000 to 5000 nM

Structure (SMILES): N#Cc1ccc2n1-c1ccccc1OC21CCN(C(=O)c2ccc(S(=O)(=O)NCCCO)cc2)CC1 [Compound 540]
IC50: 2000 to 5000 nM

Structure (SMILES): COc1cccc(C(=O)N2CCC3(CC2)Oc2cc(Cl)ccc2-n2cccc23)c1 [Compound 724]
IC50: ≤ 2000 nM

Structure (SMILES): O=C(c1ccc(OC(F)F)cc1)N1CCC2(CC1)Oc1ccccc1-n1c(C(F)(F)F)ccc12 [Compound 341]
IC50: > 5000 nM

Structure (SMILES): COc1cc(OC)c(C(=O)N2CCC3(CC2)Oc2ccccc2-n2cccc23)cc1CO [Compound 474]
IC50: 2000 to 5000 nM

Structure (SMILES): CC(C)(C(=O)O)S(=O)(=O)c1ccc(C(=O)N2CCC3(CC2)Oc2ccccc2-n2c(C(F)(F)F)ccc23)cc1 [Compound 12]
IC50: 2000 to 5000 nM

Structure (SMILES): COc1cc(C(=O)N2CCC3(CC2)Oc2cc(Cl)ccc2-n2cccc23)ccc1OCCOC(F)(F)F [Compound 291]
IC50: ≤ 2000 nM

Structure (SMILES): O=C(c1ccc(S(=O)(=O)C2CCOC2)cc1)N1CCC2(CC1)Oc1ccccc1-n1c(C(F)(F)F)ccc12 (stereo not shown) [Compound 840]
IC50: ≤ 2000 nM

Structure (SMILES): COc1cc(C(=O)N2CCC3(CC2)Oc2cc(F)ccc2-n2cccc23)ccc1OCC(C)(C)OC [Compound 378]
IC50: ≤ 2000 nM

Structure (SMILES): CC(C)S(=O)(=O)c1ccc(C(=O)N2CCC3(CC2)Oc2ccccc2-n2c(C(F)(F)F)ccc23)cc1 [Compound 621]
IC50: ≤ 2000 nM

Structure (SMILES): CC[C@@H](C)Oc1ccc(C(=O)N2CCC3(CC2)Oc2ccccc2-n2cccc23)cc1C(F)(F)F [Compound 131]
IC50: ≤ 2000 nM

Structure (SMILES): COc1ccc(C(=O)N2CCC3(CC2)Oc2ccccc2-n2c(C(F)(F)F)ccc23)c(OC)c1OC [Compound 164]
IC50: ≤ 2000 nM

Structure (SMILES): CC(C)(O)Cc1ccc(C(=O)N2CCC3(CC2)Oc2ccccc2-n2c(C(F)(F)F)ccc23)cc1 [Compound 682]
IC50: ≤ 2000 nM

Structure (SMILES): COc1cc(C(=O)N2CCC3(CC2)Oc2ccccc2-n2cccc23)ccc1OCCC(C)C [Compound 602]
IC50: ≤ 2000 nM

Structure (SMILES): COc1cc(OC)c(C(=O)N2CCC3(CC2)Oc2cc(Cl)ccc2-n2cccc23)cc1CO [Compound 576]
IC50: ≤ 2000 nM

Structure (SMILES): CC(C)(O)c1ccc(C(=O)N2CCC3(CC2)Oc2ccccc2-n2c(C#N)ccc23)cc1 [Compound 762]
IC50: ≤ 2000 nM

Structure (SMILES): Cc1cc(C(=O)N2C3CCC2CC2(C3)Oc3ccccc3-n3cccc32)ccc1OC(C)C (stereo not shown) [Compound 32]
IC50: ≤ 2000 nM

Structure (SMILES): O=C(c1cccc(Cl)c1)N1CCC2(CC1)Oc1cc(Cl)ccc1-n1cccc12 [Compound 870]
IC50: ≤ 2000 nM

Structure (SMILES): COc1ccc(F)cc1C(=O)N1CCC2(CC1)Oc1cc(Cl)ccc1-n1c(C#N)ccc12 [Compound 799]
IC50: ≤ 2000 nM

Structure (SMILES): COc1cc(C(=O)N2CCC3(CC2)Oc2ccccc2-n2c(C(C)=O)ccc23)ccc1OC(C)C [Compound 114]
IC50: ≤ 2000 nM

Structure (SMILES): CC[C@H](C)Oc1ccc(C(=O)N2CCC3(CC2)Oc2ccccc2-n2cccc23)cc1OC [Compound 326]
IC50: ≤ 2000 nM

Structure (SMILES): N#Cc1ccc2n1-c1ccccc1OC21CCN(C(=O)c2ccc(OC[C@@H](O)CO)cc2)CC1 [Compound 293]
IC50: ≤ 2000 nM

Structure (SMILES): COCCOc1cc(F)c(C(=O)N2CCC3(CC2)Oc2cc(F)ccc2-n2cccc23)cc1OC [Compound 312]
IC50: ≤ 2000 nM

Structure (SMILES): N#Cc1ccc2n1-c1ccccc1OC21CCN(C(=O)c2ccc(F)cc2Cl)CC1 [Compound 807]
IC50: > 5000 nM

Structure (SMILES): CC(C)NS(=O)(=O)c1ccc(C(=O)N2CCC3(CC2)Oc2ccccc2-n2c(C#N)ccc23)cc1 [Compound 721]
IC50: ≤ 2000 nM

Structure (SMILES): CC(C)(O)c1ccc(C(=O)N2CCC3(CC2)Oc2ccccc2-n2c(C(F)(F)F)ccc23)cc1CO [Compound 572]
IC50: 2000 to 5000 nM

Structure (SMILES): CC(C)Oc1ccc(C(=O)N2CCC3(CC2)Oc2ccccc2-n2c(C(F)(F)F)ccc23)nc1 [Compound 36]
IC50: ≤ 2000 nM

Structure (SMILES): COc1ccc(C(=O)N2CCC3(CC2)Oc2cc(Cl)ccc2-n2cccc23)c(C)c1 [Compound 111]
IC50: ≤ 2000 nM
